{"source": "patent US20070299136A1", "about": "“Crystalline and Amorphous Forms of Efaproxiral Sodium” (priority 2004, published 2007)", "type_in_all_cases": "physicochemical", "key": {"[1]": {"experiment": "Solid form remaining after heating or drying (XRPD)", "method": "XRPD analyses were carried out on a Shimadzu XRD-6000 X-ray powder diffractometer using Cu Kα radiation. The instrument is equipped with a long fine focus X-ray tube. The tube voltage and amperage were set at […] and 40 mA, respectively. The divergence and scattering slits were set at 1° and the receiving slit was set at 0.15 mm. Diffracted radiation was detected by a […] scintillation detector. A theta-two theta continuous scan at 3′/min (0.4 sec/0.02° step) from 2.5 to 40 °2θ was used. A silicon standard was analyzed each day to check the instrument alignment. Samples were analyzed with an aluminum/silicon sample holder.\nEfaproxiral sodium Form A (1125.7 mg) was dissolved completely in […] of ethanol at 48° C. Acetone (7600 μL) was slowly added over a one minute period. Form G and Form Q formed in the reactor at this time. After 1 minute 50 seconds, a further 6250 μL of acetone was added and the reactor was allowed to cool to approximately 25° C. and then to approximately 15° C. The solid material in the reactor during this interval was Form Q. After approximately 10 minutes had passed from the initial addition of acetone, the resulting powdery white solid was collected by vacuum filtration, washed with 6000 μL acetone and dried in a 52° C. vacuum oven."}, "[2]": {"experiment": "Thermogravimetric analysis (TGA) of solvated forms, ambient to 165° C.", "conditions": "for TGA weight loss: temperature raised from ambient to 165° C., sodium salt", "method": "A screen for polymorphs and solvates of efaproxiral sodium was performed using a variety of crystallization techniques. The resulting polymorphs were analyzed using a number of analytical techniques well known in the art for their ability to differentiate between different polymorphs, including thermogravimetric analysis (TGA), reflectance Fourier transform infrared (FTIR) spectroscopy (see EXAMPLE 2), and X-ray powder diffraction (XRPD) (see EXAMPLE 3). TGA is often very useful for distinguishing between different solid forms of a material because the temperature(s) at which a physical change in a material occurs is usually characteristic of the polymorph or solvate. X-Ray Powder Diffraction (XRPD) is a technique that detects long-range and short-range order in a crystalline material. IR spectroscopy also detects both intramolecular and intermolecular bonding in solids, and further provides information regarding the chemical composition of the crystalline material."}, "[3]": {"experiment": "Moisture balance / relative humidity exposure of efaproxiral sodium solid forms", "conditions": "for solid form after relative humidity is decreased to 5%: RH lowered to about 5% RH, sodium salt", "method": "Approximately 100 mg of efaproxiral sodium Form A was placed in a 20 mL glass vial. The vial was placed, uncapped, in an ambient temperature relative humidity jar at 75% relative humidity for approximately 24 hours.\nA quantity of Form A was placed on a weigh pan at about 0% relative humidity (RH). The RH was slowly raised to about 95% (adsorption) and was then lowered back to about 5% RH (desorption). The weight of the solid material was measured throughout. The results are depicted in FIG. 10. […] The resulting Form I loses slightly less than 4 moles of water as the humidity is further lowered to about 5% RH."}, "[4]": {"conditions": "Form A exposed to approximately 95% humidity"}}}
{"smiles": "Cc1cc(C)cc(NC(=O)Cc2ccc(OC(C)(C)C(=O)[O-])cc2)c1.[Na+]", "note": "[Form P, 2-[4-[2-[(3,5-dimethylphenyl)amino]-2-oxoethyl]phenoxy]-2-methyl-propionic acid, sodium salt]", "values": [{"measurement": "solid form remaining after heating (XRPD)", "setting": "[1]; heated to 156° C.", "value": "Form A"}, {"measurement": "solvent loss equivalent to TGA weight loss", "setting": "[2]; ambient to 165° C.", "value": "about 1 mole of ethanol per mole of efaproxiral sodium"}, {"measurement": "TGA weight loss", "setting": "[2]", "value": "approximately 10.6%"}]}
{"smiles": "Cc1cc(C)cc(NC(=O)Cc2ccc(OC(C)(C)C(=O)[O-])cc2)c1.[Na+]", "note": "[Form I, 2-[4-[2-[(3,5-dimethylphenyl)amino]-2-oxoethyl]phenoxy]-2-methyl-propionic acid, sodium salt]", "values": [{"measurement": "solid form after relative humidity is decreased to 5%", "setting": "[3]", "value": "amorphous efaproxiral sodium"}, {"measurement": "water lost (desorption)", "setting": "[3]; humidity further lowered to about 5% RH", "value": "less than 4 moles of water"}]}
{"smiles": "Cc1cc(C)cc(NC(=O)Cc2ccc(OC(C)(C)C(=O)[O-])cc2)c1.[Na+]", "note": "[Form Q, 2-[4-[2-[(3,5-dimethylphenyl)amino]-2-oxoethyl]phenoxy]-2-methyl-propionic acid, sodium salt]", "values": [{"measurement": "solid form after drying", "setting": "[1]; 52° C. vacuum oven, 14 hours of drying", "value": "Form Q"}, {"measurement": "solid form after drying", "setting": "[1]; 52° C. vacuum oven, 32 hours of drying", "value": "Form Q"}, {"measurement": "solid form after drying", "setting": "[1]; dried at 70° C. under vacuum", "value": "Form B"}, {"measurement": "solid form remaining after heating (XRPD)", "setting": "[1]; heated to about 165° C.", "value": "Form A"}, {"measurement": "solvent loss equivalent to TGA weight loss", "setting": "[2]; ambient to about 165° C.", "value": "½ to about ⅓"}, {"measurement": "TGA weight loss", "setting": "[2]", "value": "approximately 5.7%"}]}
{"smiles": "Cc1cc(C)cc(NC(=O)Cc2ccc(OC(C)(C)C(=O)[O-])cc2)c1.[Na+]", "note": "[Form A, 2-[4-[2-[(3,5-dimethylphenyl)amino]-2-oxoethyl]phenoxy]-2-methyl-propionic acid, sodium salt]", "values": [{"measurement": "water uptake equivalent to weight gain", "setting": "[3]; [4]", "value": "approximately 7 moles of water/mole efaproxiral sodium"}, {"measurement": "weight gain", "setting": "[3]; [4]", "value": "approximately 34%"}, {"measurement": "water uptake equivalent to weight gain", "setting": "[3]; Form A incubated at high relative humidity", "value": "about 4 moles of water/mole efaproxiral sodium"}, {"measurement": "weight gain", "setting": "[3]; Form A incubated at high relative humidity (75% RH, ambient temperature, approximately 24 hours)", "value": "approximately 20%"}, {"measurement": "water gained (adsorption)", "setting": "[3]; RH raised from about 0% to about 85% RH, converts to Form I", "value": "about 4 moles of water/mole efaproxiral sodium"}, {"measurement": "solid form after incubation at high relative humidity", "setting": "[3]; high relative humidity", "value": "Form I"}, {"measurement": "further water gained (adsorption)", "setting": "[3]; humidity raised further to about 95% RH, converts to Form J", "value": "about 3 moles of water/mole efaproxiral sodium"}]}
{"smiles": "Cc1cc(C)cc(NC(=O)Cc2ccc(OC(C)(C)C(=O)[O-])cc2)c1.[Na+]", "note": "[Form F, 2-[4-[2-[(3,5-dimethylphenyl)amino]-2-oxoethyl]phenoxy]-2-methyl-propionic acid, sodium salt]", "values": [{"measurement": "removal of lattice solvent (methanol) by heating", "setting": "[1]; 80° C. for approximately 3 hours", "value": "can be removed"}]}
{"smiles": "Cc1cc(C)cc(NC(=O)Cc2ccc(OC(C)(C)C(=O)[O-])cc2)c1.[Na+]", "note": "[Form J, 2-[4-[2-[(3,5-dimethylphenyl)amino]-2-oxoethyl]phenoxy]-2-methyl-propionic acid, sodium salt]", "values": [{"measurement": "solid form after relative humidity is decreased to 5%", "setting": "[3]", "value": "Amorphous material"}, {"measurement": "water lost (desorption)", "setting": "[3]; humidity lowered from about 95% to about 20% RH, converts to Form I", "value": "about 3 moles of water/mole efaproxiral sodium"}]}
